# Source: PubChem BioAssay AID200 (DTP/NCI, 2004)
# “And” between values parts separate entries of the source, which are not always exact repeats. Identical values can stand only once. Toxic doses and inconclusive results are not listed.
# Tested on: B6C3F1 mice, B16 melanoma ip, median survival T/C
# Assay: NCI In Vivo Anticancer Drug Screen. Data for tumor model B16 Melanoma (intraperitoneal) in B6C3F1 mice
# Conditions: endpoint: median survival time, schedule: Q01DX009 (ip), higher = longer survival
# Summary of the method: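 Tumor-bearing mice received test compound; a separate group got vehicle only. Survival was then compared, with results reported as treated over control.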
# [1] = dose: 0.5 mg/kg/injection, vehicle: saline
# [2] = dose: 1.0 mg/kg/injection, vehicle: saline
# [3] = dose: 2.0 mg/kg/injection, vehicle: saline
# [4] = dose: 6.25 mg/kg/injection, vehicle: saline with Tween-80
# [5] = dose: 12.5 mg/kg/injection, vehicle: saline with Tween-80
# [6] = dose: 25.0 mg/kg/injection, vehicle: saline with Tween-80
# [7] = dose: 50.0 mg/kg/injection, vehicle: saline with Tween-80
# [8] = dose: 100.0 mg/kg/injection, vehicle: saline with Tween-80
# [9] = dose: 200.0 mg/kg/injection, vehicle: saline with Tween-80
# [10] = dose: 400.0 mg/kg/injection, vehicle: saline with Tween-80
# [11] = dose: 25.0 mg/kg/injection, vehicle: suspension in saline
# [12] = dose: 3.12 mg/kg/injection, vehicle: saline with Tween-80
# [13] = dose: 6.25 mg/kg/injection, vehicle: saline
# [14] = dose: 12.5 mg/kg/injection, vehicle: saline
# [15] = dose: 25.0 mg/kg/injection, vehicle: saline
# [16] = dose: 50.0 mg/kg/injection, vehicle: saline
# [17] = dose: 3.12 mg/kg/injection, vehicle: water
# [18] = dose: 50.0 mg/kg/injection, vehicle: Klucel (hydroxypropylcellulose) (HPC)
# [19] = dose: 100.0 mg/kg/injection, vehicle: Klucel (hydroxypropylcellulose) (HPC)
# [20] = dose: 200.0 mg/kg/injection, vehicle: Klucel (hydroxypropylcellulose) (HPC)
# [21] = dose: 200.0 mg/kg/injection, vehicle: saline
smiles,measurement,setting,value
COc1cc2c(cc1O)N=C[C@@H]1CCC(O)N1C2=O (mixture of isomers),T/C,[1],100 % of control
same,T/C,[2],100 % of control and 107 % of control
same,T/C,[3],111 % of control and 106 % of control
same,T/C,"dose: 4.0 mg/kg/injection, vehicle: saline",110 % of control and 121 % of control
same,T/C,"dose: 8.0 mg/kg/injection, vehicle: saline",115 % of control
CC1([CH2][Hg][I])COCC([CH2][Hg][I])O1 (centres undefined),T/C,"dose: 5.0 mg/kg/injection, vehicle: Klucel (hydroxypropylcellulose) (HPC)",100 % of control
same,T/C,"dose: 10.0 mg/kg/injection, vehicle: Klucel (hydroxypropylcellulose) (HPC)",102 % of control
same,T/C,"dose: 20.0 mg/kg/injection, vehicle: Klucel (hydroxypropylcellulose) (HPC)",86 % of control
N#Cc1c(N)[nH]c2ccc(Sc3ccccc3)cc12,T/C,[4],110 % of control
same,T/C,[5],94 % of control
same,T/C,[6],99 % of control
same,T/C,[7],107 % of control
Cc1ccc(NC(=O)Oc2ccc(Br)cc2Br)c([N+](=O)[O-])c1,T/C,[5],105 % of control
same,T/C,[6],104 % of control
same,T/C,[7],105 % of control
same,T/C,[8],101 % of control
same,T/C,[9],103 % of control
same,T/C,[10],107 % of control
Cc1cc2nc3c(=O)[nH]c(=O)nc-3n(CC(O)C(O)C(O)C(O)CO)c2cc1C (centres undefined),T/C,[11],104 % of control
same,T/C,"dose: 50.0 mg/kg/injection, vehicle: suspension in saline",111 % of control
same,T/C,"dose: 100.0 mg/kg/injection, vehicle: suspension in saline",102 % of control
same,T/C,"dose: 200.0 mg/kg/injection, vehicle: suspension in saline",93 % of control
CCC(NC(N)=O)C(CC)NC(N)=O (centres undefined),T/C,[5],99 % of control
same,T/C,[6],96 % of control
same,T/C,[7],89 % of control
O=C(Nc1ccc(C2=NCCN2)cc1)c1ccc(C(=O)Nc2ccc(C3=NCCN3)cc2)c(Cl)c1,T/C,"dose: 1.56 mg/kg/injection, vehicle: saline with Tween-80",105 % of control
same,T/C,"dose: 1.56 mg/kg/injection, vehicle: saline",115 % of control
same,T/C,[12],98 % of control
same,T/C,"dose: 3.12 mg/kg/injection, vehicle: saline",89 % of control
same,T/C,[4],100 % of control
same,T/C,[13],100 % of control
same,T/C,[5],93 % of control
same,T/C,[14],93 % of control
same,T/C,[6],110 % of control
same,T/C,[15],94 % of control
same,T/C,[7],110 % of control
same,T/C,[16],99 % of control
Oc1ccc(O)cc1,T/C,"dose: 3.13 mg/kg/injection, vehicle: saline",101 % of control
same,T/C,[13],88 % of control
same,T/C,[14],95 % of control
same,T/C,[15],110 % of control
same,T/C,[16],98 % of control
NC(=O)c1ncn2c(=O)n(CCCl)nnc12,T/C,"dose: 3.13 mg/kg/injection, vehicle: suspension in saline",123 % of control
same,T/C,"dose: 12.5 mg/kg/injection, vehicle: suspension in saline",225 % of control
same,T/C,[11],209 % of control
O=NNc1cnccn1,T/C,[17],120 % of control and 103 % of control and 106 % of control
same,T/C,"dose: 6.25 mg/kg/injection, vehicle: water",109 % of control and 110 % of control and 114 % of control
same,T/C,"dose: 12.5 mg/kg/injection, vehicle: water",113 % of control
same,T/C,"dose: 25.0 mg/kg/injection, vehicle: water",155 % of control and 158 % of control and 169 % of control
same,T/C,"dose: 50.0 mg/kg/injection, vehicle: water",96 % of control
Nc1nc2c(ncn2C2OC(CO)C(O)C2N)c(=O)[nH]1 (centres undefined),T/C,[12],97 % of control
same,T/C,[4],90 % of control
same,T/C,[5],107 % of control
same,T/C,[6],112 % of control
same,T/C,[7],97 % of control
same,T/C,[8],107 % of control
same,T/C,[9],104 % of control
c1cn[nH]c1,T/C,[14],94 % of control
same,T/C,[15],118 % of control
same,T/C,[16],118 % of control
same,T/C,"dose: 100.0 mg/kg/injection, vehicle: saline",106 % of control
CNCCN=c1ccc2c3c1c(O)c1c(O)ccc(=O)c1c3[nH]n2CCNCCO,T/C,"dose: 0.38 mg/kg/injection, vehicle: water",273 % of control
same,T/C,"dose: 0.75 mg/kg/injection, vehicle: water",357 % of control
same,T/C,"dose: 1.5 mg/kg/injection, vehicle: water",357 % of control
same,T/C,"dose: 3.0 mg/kg/injection, vehicle: water",309 % of control
same,T/C,[17],169 % of control
CC(C)CC(NC(=O)C(F)(F)F)C(=O)O (centres undefined),T/C,[15],89 % of control
same,T/C,[16],91 % of control
COC(=O)C[C@](O)(CCC(C)(C)O)C(=O)O[C@@H]1C(OC)=C[C@]23CCCN2CCc2cc4c(cc2[C@H]13)OCO4,T/C,"dose: 0.25 mg/kg/injection, vehicle: saline",124 % of control
same,T/C,[1],154 % of control and 161 % of control
same,T/C,[2],161 % of control and 168 % of control
same,T/C,[3],168 % of control
CCSC(=O)N1c2ccc(OC)cc2C=CC1C#N (centres undefined),T/C,[7],121 % of control and 95 % of control
same,T/C,[8],124 % of control and 107 % of control
same,T/C,[9],110 % of control
CCOC(=O)Nc1cc2c(c(N)n1)N=C(CN(C)c1ccccc1)CN2,T/C,"dose: 0.78 mg/kg/injection, vehicle: Klucel (hydroxypropylcellulose) (HPC)",93 % of control
same,T/C,"dose: 1.56 mg/kg/injection, vehicle: Klucel (hydroxypropylcellulose) (HPC)",116 % of control
same,T/C,"dose: 3.12 mg/kg/injection, vehicle: Klucel (hydroxypropylcellulose) (HPC)",114 % of control
same,T/C,"dose: 6.25 mg/kg/injection, vehicle: Klucel (hydroxypropylcellulose) (HPC)",117 % of control
Nc1nc(-c2ccccc2)c(Br)c(=O)[nH]1,T/C,[7],156 % of control and 183 % of control
same,T/C,"dose: 800.0 mg/kg/injection, vehicle: saline with Tween-80",116 % of control
CC(C)(C)NC(C1=CC(C)(C)c2ccccc2C1=O)c1ccccc1 (centres undefined),T/C,[18],99 % of control
same,T/C,[19],88 % of control
same,T/C,[20],98 % of control
O=C(CCl)N1c2ccccc2Oc2cc3ccccc3cc21,T/C,[7],111 % of control
same,T/C,[8],108 % of control
same,T/C,[9],97 % of control
same,T/C,[21],122 % of control and 95 % of control
same,T/C,[10],92 % of control
same,T/C,"dose: 400.0 mg/kg/injection, vehicle: saline",97 % of control and 100 % of control
COc1cc(C)c(C2NC(=O)c3ccccc3N2)cc1C (centres undefined),T/C,[18],111 % of control and 120 % of control
same,T/C,[19],115 % of control and 105 % of control
same,T/C,[20],111 % of control
same,T/C,"dose: 400.0 mg/kg/injection, vehicle: Klucel (hydroxypropylcellulose) (HPC)",112 % of control
same,T/C,"dose: 800.0 mg/kg/injection, vehicle: Klucel (hydroxypropylcellulose) (HPC)",107 % of control
CC(SC(C)C(=O)N/N=C/c1ccc(C#N)cc1)C(=O)N/N=C\c1ccc(C#N)cc1 (centres undefined),T/C,[7],92 % of control
same,T/C,[8],88 % of control
same,T/C,[9],87 % of control
same,T/C,[21],88 % of control
COC(=O)C(CSCc1ccccc1)NC(=O)C(C)NC(=O)OCc1ccccc1 (centres undefined),T/C,[18],97 % of control
same,T/C,[19],90 % of control
same,T/C,[20],90 % of control
Brc1ccc(C[N+]23CN4CN(CN(C4)C2)C3)cc1,T/C,[5],100 % of control
same,T/C,[6],98 % of control
same,T/C,[7],101 % of control
same,T/C,[8],108 % of control
same,T/C,[9],112 % of control
C/C=C(\C)c1cc(=O)c2c(C)cc3c(c2o1)C(=O)c1c(O)c(C2CC(C)(N(C)C)C(OC(C)=O)C(C)O2)cc(C2CC(N(C)C)C(O)C(C)O2)c1C3=O (centres undefined),T/C,"dose: 0.15 mg/kg/injection, vehicle: saline",110 % of control
same,T/C,"dose: 0.15 mg/kg/injection, vehicle: suspension in saline",102 % of control
same,T/C,"dose: 0.31 mg/kg/injection, vehicle: suspension in saline",114 % of control
same,T/C,"dose: 0.62 mg/kg/injection, vehicle: suspension in saline",109 % of control
Nc1ccc2cc(S(=O)(=O)O)cc(O)c2c1N=Nc1ccc(F)cc1,T/C,[6],95 % of control
same,T/C,[7],98 % of control
same,T/C,[8],90 % of control
